Test system: Rat Aorta
Assay: Inhibition of calcium chloride-induced contraction of depolarized rat aorta (vascular smooth muscle segments in tissue bath)
Type: cell-based, male Sprague-Dawley rats
Conditions: contraction induced by 1.0 mM calcium chloride; for inhibition at 10 µM / inhibition at 1 µM: Rattus norvegicus, read-out: Percent Inhibition of Contraction of Rat Aorta; for inhibition at 10 µM: at 10^-5 M
Protocol: The property may be observed in a test in which segments of vascular smooth muscle obtained from male Sprague-Dawley rats are suspended in physiological salt solution in a tissue bath instrumented for recording contractions. After the tissue has been equilibrated, washed in calcium-free physiological salt solution and then depolarized, 1.0 mM calcium chloride is re-added to induce contraction. […] From measuring the initial contraction as well as the second contraction in the presence of the test compound, the extent of inhibition may be calculated.

Structure (SMILES)	inhibition at 10 µM [%]	inhibition at 1 µM (at 10^-6 M) [%]	other results
CCOC(=O)C1=C(C)NC(C)(C#N)[C@]2(C(=O)OCC)C(O)c3ccccc3[C@H]12 (stereo partly drawn) [Compound IIIB-1, 4a(R,S),9a(S,R)-Diethyl 1-cyano-1,3-dimethyl-2,4a,9,9a-tetrahydro-9-hydroxy-9H-indeno[2,1-c]pyridine-4,9a-dicarboxylate]	–	–	Percent Inhibition of Contraction of Rat Aorta (at 10^-6 M): 52%
CCOC(=O)C1=C(C)N[C@@](C)(C#N)[C@]2(C(=O)OCC)[C@@H](OC(C)=O)c3ccccc3[C@H]12 (relative stereo) [Compound IVA-1, 4a(R,S),9a(S,R)-Diethyl 9-acetoxy-1-cyano-2,4a,9,9a-tetrahydro-1,3-dimethyl-9H-indeno[2,1-c]pyridine-4,9a-dicarboxylate]	62	–	–
CCOC(=O)C1=C(C)N[C@@](C)(C#N)[C@]2(C(=O)OCC)[C@@H](O)c3ccccc3[C@H]12 (relative stereo) [Compound IIIA-1, 4a(R,S),9a(S,R)-Diethyl 1-cyano-1,3-dimethyl-2,4a,9,9a-tetrahydro-9-hydroxy-9H-indeno[2,1-c]pyridine-4,9a-dicarboxylate]	84	–	–
CCOC(=O)C1=C(C)N[C@@](C)(C#N)[C@]2(C(=O)OCC)[C@H](Cl)c3ccccc3[C@H]12 (relative stereo) [Compound V-1, 4a(R,S),9a(S,R)-Diethyl 9-chloro-1-cyano-2,4a,9,9a-tetrahydro-1,3-dimethyl-9H-indeno[2,1-c]pyridine-4,9a-dicarboxylate]	24	–	–
COC(=O)C1=C(C)N[C@@](C)(C#N)[C@]2(C(=O)OC)[C@@H](O)c3cc(OC)ccc3[C@H]12 (relative stereo) [Compound IIIA-2, 4a(R,S),9a(S,R)-Dimethyl 1-cyano-9-hydroxy-7-methoxy-2,4a,9,9a-tetrahydro-1,3-dimethyl-9H-indeno[2,1-c]pyridine-4,9a-dicarboxylate hydrate]	–	4	–
CCOC(=O)C1=C(C)N[C@](C)(C#N)[C@]2(C(=O)OCC)[C@@H](OC(C)=O)c3ccccc3[C@H]12 (relative stereo) [Compound IVB-1, 4a(R,S),9a(S,R)-Diethyl 9-acetoxy-1-cyano-2,4a,9,9a-tetrahydro-1,3-dimethyl-9H-indeno[2,1-c]pyridine-4,9a-dicarboxylate]	–	6	–
COC(=O)C1=C(C)N[C@](C)(C#N)[C@]2(C(=O)OC)[C@@H](O)c3cc(OC)ccc3[C@H]12 (relative stereo) [Compound IIIB-2, 4a(R,S),9a(S,R)-Dimethyl 1-cyano-9-hydroxy-7-methoxy-2,4a,9,9a-tetrahydro-1,3-dimethyl-9H-indeno[2,1-c]pyridine-4,9a-dicarboxylate]	–	2	–

Reference: US4605660A, “Indeno[2,1-c]pyridine compounds, and their use as calcium channel blockers” (Merck & Co., Inc., priority 1985, dated 1986)
